Laboratory results: ChEMBL document CHEMBL4420081, “Novel benzylamino substituted quinazolines and derivatives as sos1 inhibitors” (2018)

Tests used:
Format in all cases: functional
Conditions in all cases: PC-9, 336 h, read-out: GI
PC-9 [1] = experiment: Growth inhibition of human PC9 cells grown under 3D anchorage-independent soft-agar conditions at 10 nM incubated for 14 days by alamar blue dye based assay relative to control
PC-9 [2] = experiment: Growth inhibition of human PC9 cells grown under 3D anchorage-independent soft-agar conditions at 3.33 nM incubated for 14 days by alamar blue dye based assay relative to control
PC-9 [3] = experiment: Growth inhibition of human PC9 cells grown under 3D anchorage-independent soft-agar conditions at 1.11 nM incubated for 14 days by alamar blue dye based assay relative to control
PC-9 [4] = experiment: Growth inhibition of human PC9 cells grown under 3D anchorage-independent soft-agar conditions at 0.37 nM incubated for 14 days by alamar blue dye based assay relative to control
PC-9 [5] = experiment: Growth inhibition of human PC9 cells grown under 3D anchorage-independent soft-agar conditions at 0.123 nM incubated for 14 days by alamar blue dye based assay relative to control

Compound: C=CC(=O)Nc1cccc(Oc2nc(Nc3ccc(N4CCN(C)CC4)cc3)nc3ccsc23)c1 [OLMUTINIB]
- inhibition of growth at 0.01 µM (PC-9 [1]): 69%
- inhibition of growth at 0.00333 µM (PC-9 [2]): 35%
- inhibition of growth at 0.00111 µM (PC-9 [3]): 1%
- inhibition of growth at 0.00037 µM (PC-9 [4]): -3%
- inhibition of growth at 0.000123 µM (PC-9 [5]): -3%
